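How tested: cells in 96-well plates exposed to compound for 48 hours at five concentrations. TGI: total growth inhibition.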
How the values were obtained:
Assay in all cases: NCI-60 cell line screen, 48 h
786-0 renal = test system: 786-0 renal
A498 renal = test system: A498 renal
A549 NSCLC = test system: A549 NSCLC
ACHN renal = test system: ACHN renal
CAKI-1 renal = test system: CAKI-1 renal
CCRF-CEM leukemia = test system: CCRF-CEM leukemia
COLO 205 colon = test system: COLO 205 colon
DU-145 prostate = test system: DU-145 prostate
EKVX NSCLC = test system: EKVX NSCLC
HCC-2998 colon = test system: HCC-2998 colon
HCT-116 colon = test system: HCT-116 colon
HCT-15 colon = test system: HCT-15 colon
HL-60(TB) leukemia = test system: HL-60(TB) leukemia
HOP-62 NSCLC = test system: HOP-62 NSCLC
HOP-92 NSCLC = test system: HOP-92 NSCLC
HS 578T breast = test system: HS 578T breast
HT29 colon = test system: HT29 colon
K-562 leukemia = test system: K-562 leukemia
KM12 colon = test system: KM12 colon
LOX IMVI melanoma = test system: LOX IMVI melanoma
M14 melanoma = test system: M14 melanoma
MALME-3M melanoma = test system: MALME-3M melanoma
MCF7 breast = test system: MCF7 breast
MDA-MB-231 breast = test system: MDA-MB-231 breast
MDA-MB-435 = test system: MDA-MB-435
MDA-N = test system: MDA-N
MOLT-4 leukemia = test system: MOLT-4 leukemia
NCI-H226 lung = test system: NCI-H226 lung
NCI-H23 lung = test system: NCI-H23 lung
NCI-H460 lung = test system: NCI-H460 lung
NCI-H522 lung = test system: NCI-H522 lung
NCI/ADR-RES ovarian = test system: NCI/ADR-RES ovarian
OVCAR-3 ovarian = test system: OVCAR-3 ovarian
OVCAR-5 ovarian = test system: OVCAR-5 ovarian
OVCAR-8 ovarian = test system: OVCAR-8 ovarian
PC-3 prostate = test system: PC-3 prostate
RPMI-8226 leukemia = test system: RPMI-8226 leukemia
RXF 393 renal = test system: RXF 393 renal
SF-268 CNS = test system: SF-268 CNS
SF-295 CNS = test system: SF-295 CNS
SF-539 CNS = test system: SF-539 CNS
SK-MEL-2 melanoma = test system: SK-MEL-2 melanoma
SK-MEL-28 melanoma = test system: SK-MEL-28 melanoma
SK-MEL-5 melanoma = test system: SK-MEL-5 melanoma
SK-OV-3 ovarian = test system: SK-OV-3 ovarian
SN12C renal = test system: SN12C renal
SNB-19 CNS = test system: SNB-19 CNS
SNB-75 CNS = test system: SNB-75 CNS
SR leukemia = test system: SR leukemia
SW-620 colon = test system: SW-620 colon
T-47D breast = test system: T-47D breast
TK-10 renal = test system: TK-10 renal
UACC-257 melanoma = test system: UACC-257 melanoma
UACC-62 melanoma = test system: UACC-62 melanoma
UO-31 renal = test system: UO-31 renal
BT-549 breast = test system: BT-549 breast
IGROV1 ovarian = test system: IGROV1 ovarian
OVCAR-4 ovarian = test system: OVCAR-4 ovarian
U251 CNS = test system: U251 CNS

With `CC1OCC2OC(C)OC(C3C4=C(CC(C)(C)CC4=O)OC4=C3C(=O)CC(C)(C)C4)C2O1` (centres undefined) the TGI (786-0 renal) was > 100 µM, the TGI (A498 renal) was > 100 µM and the TGI (A549 NSCLC) was > 100 µM. For the same molecule, the TGI (ACHN renal) was > 100 µM, the TGI (CAKI-1 renal) was > 100 µM and the TGI (CCRF-CEM leukemia) was > 100 µM. For the same molecule, the TGI (COLO 205 colon) was > 100 µM, the TGI (DU-145 prostate) was > 100 µM and the TGI (EKVX NSCLC) was > 100 µM. The TGI (HCC-2998 colon) was > 100 µM, the TGI (HCT-116 colon) was > 100 µM and the TGI (HCT-15 colon) was > 100 µM. The TGI (HL-60(TB) leukemia) was > 100 µM, the TGI (HOP-62 NSCLC) was > 100 µM and the TGI (HOP-92 NSCLC) was > 100 µM. For the same molecule, the TGI (HS 578T breast) was > 100 µM, the TGI (HT29 colon) was > 100 µM and the TGI (K-562 leukemia) was > 100 µM. For the same molecule, the TGI (KM12 colon) was > 100 µM, the TGI (LOX IMVI melanoma) was > 100 µM and the TGI (M14 melanoma) was > 100 µM. The TGI (MALME-3M melanoma) was > 100 µM, the TGI (MCF7 breast) was > 100 µM and the TGI (MDA-MB-231 breast) was > 100 µM. For the same molecule, the TGI (MDA-MB-435) was > 100 µM, the TGI (MDA-N) was > 100 µM and the TGI (MOLT-4 leukemia) was > 100 µM. For the same molecule, the TGI (NCI-H226 lung) was > 100 µM, the TGI (NCI-H23 lung) was > 100 µM and the TGI (NCI-H460 lung) was > 100 µM. The TGI (NCI-H522 lung) was > 100 µM, the TGI (NCI/ADR-RES ovarian) was > 100 µM and the TGI (OVCAR-3 ovarian) was > 100 µM. The TGI (OVCAR-5 ovarian) was > 100 µM, the TGI (OVCAR-8 ovarian) was > 100 µM and the TGI (PC-3 prostate) was > 100 µM. For the same molecule, the TGI (RPMI-8226 leukemia) was > 100 µM, the TGI (RXF 393 renal) was > 100 µM and the TGI (SF-268 CNS) was > 100 µM. For the same molecule, the TGI (SF-295 CNS) was > 100 µM, the TGI (SF-539 CNS) was > 100 µM and the TGI (SK-MEL-2 melanoma) was > 100 µM. The TGI (SK-MEL-28 melanoma) was > 100 µM, the TGI (SK-MEL-5 melanoma) was > 100 µM and the TGI (SK-OV-3 ovarian) was > 100 µM. For the same molecule, the TGI (SN12C renal) was > 100 µM, the TGI (SNB-19 CNS) was > 100 µM and the TGI (SNB-75 CNS) was > 100 µM. For the same molecule, the TGI (SR leukemia) was > 100 µM, the TGI (SW-620 colon) was > 100 µM and the TGI (T-47D breast) was > 100 µM. The TGI (TK-10 renal) was > 100 µM, the TGI (UACC-257 melanoma) was > 100 µM and the TGI (UACC-62 melanoma) was > 100 µM. The TGI (UO-31 renal) was > 100 µM.

`CCOC(=O)c1nc2c3c(ncn2n1)Oc1c(c(-c2ccccc2)nn1-c1ccccc1)C3c1ccc(OC)c(OC)c1` (centres undefined) was tested, and the TGI (786-0 renal) was > 100 µM, the TGI (A549 NSCLC) was > 100 µM and the TGI (ACHN renal) was > 100 µM. The TGI (BT-549 breast) was > 100 µM, the TGI (CAKI-1 renal) was > 100 µM and the TGI (CCRF-CEM leukemia) was > 100 µM. For the same molecule, the TGI (COLO 205 colon) was > 100 µM, the TGI (DU-145 prostate) was > 100 µM and the TGI (EKVX NSCLC) was > 100 µM. The TGI (HCC-2998 colon) was > 100 µM, the TGI (HCT-116 colon) was > 100 µM and the TGI (HCT-15 colon) was > 100 µM. The TGI (HOP-62 NSCLC) was 48.5 µM, the TGI (HOP-92 NSCLC) was > 100 µM and the TGI (HS 578T breast) was 38 µM. For the same molecule, the TGI (HT29 colon) was > 100 µM, the TGI (IGROV1 ovarian) was > 100 µM and the TGI (K-562 leukemia) was > 100 µM. The TGI (LOX IMVI melanoma) was > 100 µM, the TGI (M14 melanoma) was > 100 µM and the TGI (MALME-3M melanoma) was > 100 µM. The TGI (MCF7 breast) was > 100 µM, the TGI (MDA-MB-231 breast) was > 100 µM and the TGI (MDA-MB-435) was > 100 µM. For the same molecule, the TGI (MDA-N) was > 100 µM, the TGI (MOLT-4 leukemia) was > 100 µM and the TGI (NCI-H23 lung) was > 100 µM. For the same molecule, the TGI (NCI-H460 lung) was > 100 µM, the TGI (NCI-H522 lung) was > 100 µM and the TGI (NCI/ADR-RES ovarian) was > 100 µM. The TGI (OVCAR-3 ovarian) was > 100 µM, the TGI (OVCAR-4 ovarian) was 30.4 µM and the TGI (OVCAR-5 ovarian) was > 100 µM. For the same molecule, the TGI (OVCAR-8 ovarian) was 82.5 µM, the TGI (PC-3 prostate) was > 100 µM and the TGI (RPMI-8226 leukemia) was > 100 µM. The TGI (RXF 393 renal) was 91.4 µM, the TGI (SF-268 CNS) was 71.1 µM and the TGI (SF-295 CNS) was > 100 µM. For the same molecule, the TGI (SF-539 CNS) was 26.8 µM, the TGI (SK-MEL-2 melanoma) was > 100 µM and the TGI (SK-MEL-28 melanoma) was > 100 µM. For the same molecule, the TGI (SK-MEL-5 melanoma) was > 100 µM, the TGI (SK-OV-3 ovarian) was > 100 µM and the TGI (SN12C renal) was > 100 µM. The TGI (SNB-19 CNS) was 82.4 µM, the TGI (SNB-75 CNS) was 66.6 µM and the TGI (SR leukemia) was > 100 µM. For the same molecule, the TGI (SW-620 colon) was > 100 µM, the TGI (TK-10 renal) was > 100 µM and the TGI (U251 CNS) was > 100 µM. For the same molecule, the TGI (UACC-257 melanoma) was > 100 µM, the TGI (UACC-62 melanoma) was > 100 µM and the TGI (UO-31 renal) was > 100 µM.

Source: PubChem BioAssay (NCI)
